The IC50 is the midpoint of a concentration-inhibition curve.

Experimental findings from patent publication US11045448B2, “Piperidines as covalent menin inhibitors” (THE REGENTS OF THE UNIVERSITY OF MICHIGAN, priority 2017, dated 2021) are described below.

The target of one assay is menin protein (Homo sapiens (Human), UniProt O00255). The assay can be described thus: Fluorescence polarization (FP) competitive binding assay, menin binding affinity. As to conditions: menin protein 4 nM, probe 2 nM, room temperature 30 minutes. Here is the method:
A fluorescence polarization (FP) competitive binding assay was used to determine the binding affinities of representative menin inhibitors. A FAM labeled fluorescent probe was designed and synthesized based on a MLL1 peptide (FAM-MM2). Equilibrium dissociation constant (Kd) value of FAM-MM2 to menin protein was determined from protein saturation experiments by monitoring the total fluorescence polarization of mixtures composed with the fluorescent probe at a fixed concentration and the protein with increasing concentrations up to full saturation. Serial dilutions of the protein were mixed with FAM-MM2 to a final volume of 200 μl in the assay buffer (PBS with 0.02% Bovine γ-Globulin and 4% DMSO. 0.01% Triton X-100 was added right before assays). Final FAM-MM2 concentration was 2 nM. Plates were incubated at room temperature for 30 minutes with gentle shaking to assure equilibrium. FP values in millipolarization units (mP) were measured using the Infinite M-1000 plate reader (Tecan U.S., Research Triangle Park, N.C.) in Microfluor 1 96-well, black, v-bottom plates (Thermo Scientific, Waltham, Mass.) at an excitation wavelength of 485 nm and an emission wavelength of 530 nm.
The IC50, see Table 3, of representative Compounds of the Disclosure were determined in a competitive binding experiment. Mixtures of 5 μl of the tested compounds in DMSO and 195 μl of preincubated protein/probe complex solution in the assay buffer were added into assay plates which were incubated at room temperature for 30 minutes with gentle shaking. Final concentration of the menin protein was 4 nM, and final probe concentration is 2 nM. Negative controls containing protein/probe complex only (equivalent to 0% inhibition), and positive controls containing only free probes (equivalent to 100% inhibition), were included in each assay plate. FP values were measured as described above. IC50 values were determined by nonlinear regression fitting of the competition curves.
In general terms: Fluorescence polarisation rises when a labelled molecule tumbles more slowly, as on binding a larger partner.

A further assay concerns MV4-11. Description: 7-day proliferation assay (WST-8), MV4-11. The format is cell-based. As to conditions: Homo sapiens, 168 h; Table 5; MV4-11; 7 days; read-out: IC50 in cell growth inhibition. Here is the method:
(§1) The effect of representative Compounds of the Disclosure on cell viability was determined in a 7-day proliferation assay. Cells were maintained in the appropriate culture medium with 10% FBS at 37° C. and an atmosphere of 5% CO2.
(§2) Cells were seeded in 96-well flat bottom (Corning COSTAR, Corning, N.Y., cat #3595) at a density of 2,000-3,000 cells/well in 100 μl of culture medium. Compounds were serially diluted in the appropriate medium, and 100 μl of the diluted compounds were added to the appropriate wells of the cell plate. After the addition of compounds, the cells were incubated at 37° C. in an atmosphere of 5% CO2 for 7 days. Cell viability was determined using the WST (2-(2-methoxy-4-nitrophenyl)-3-(4-nitrophenyl)-5-(2,4-disulfophenyl)-2H-tetrazolium, monosodium salt) Cell Counting-8 Kit (Dojindo Molecular Technologies, Inc., Rockville, Md.) according to the manufacturers' instructions.
(§3) WST-8 reagent was added to each well at a final concentration of 10% (v/v), and then the plates were incubated at 37° C. for 1-2 hours for color development. The absorbance was measured at 450 nm using a SPECTRAmax PLUS plate reader (Molecular Devices, Sunnyvale, Calif.). The readings were normalized to the DMSO-treated cells and the half maximal inhibitory concentration (IC50) was calculated by nonlinear regression (four parameters sigmoid fitted with variable slope, least squares fit, and no constraint) analysis using the GraphPad Prism 5 software (GraphPad Software, La Jolla, Calif.).
(In general: Tetrazolium dyes change colour on reduction, which living cells bring about.)

The next assay concerns MOLM13. Description: 7-day proliferation assay (WST-8), MOLM13. The format is cell-based. As to conditions: Homo sapiens, MOLM-13, 168 h; Table 5; MOLM13; 7 days; read-out: IC50 in cell growth inhibition. Here is the method:
as §1, §2, §3

Chain of menin protein (O00255 whole entry): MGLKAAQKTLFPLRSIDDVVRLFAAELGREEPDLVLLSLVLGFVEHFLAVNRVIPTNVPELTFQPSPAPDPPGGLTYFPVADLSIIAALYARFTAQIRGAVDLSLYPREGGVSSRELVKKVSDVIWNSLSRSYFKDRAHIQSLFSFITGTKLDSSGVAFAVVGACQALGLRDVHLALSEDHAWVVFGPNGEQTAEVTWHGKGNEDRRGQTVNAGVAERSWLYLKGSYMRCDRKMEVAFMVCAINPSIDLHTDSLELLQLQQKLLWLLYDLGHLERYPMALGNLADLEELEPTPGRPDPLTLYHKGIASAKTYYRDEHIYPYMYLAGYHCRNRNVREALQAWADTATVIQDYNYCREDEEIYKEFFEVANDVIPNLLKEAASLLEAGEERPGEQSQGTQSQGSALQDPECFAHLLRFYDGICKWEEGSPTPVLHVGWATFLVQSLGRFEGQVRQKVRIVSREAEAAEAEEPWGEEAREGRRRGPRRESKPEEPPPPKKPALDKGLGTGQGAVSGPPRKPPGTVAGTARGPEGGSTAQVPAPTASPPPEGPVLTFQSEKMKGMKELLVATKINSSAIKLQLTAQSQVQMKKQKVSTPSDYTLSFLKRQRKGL

As for `COC(=O)N[C@H]1CCC[C@@H]1[C@@](C#N)(c1cccc(F)c1)C1CCN(CC2CN(c3ccc(S(=O)(=O)C4CN(C(=O)/C=C/CN(C)C)C4)cc3)C2)CC1` [Cpd. No. 60, methyl ((1S,2R)-2-((R)-cyano(1-((1-(4-((1-((E)-4-(dimethylamino)but-2-enoyl)azetidin-3-yl)sulfonyl)phenyl)azetidin-3-yl)methyl)piperidin-4-yl)(3-fluorophenyl)methyl)cyclopentyl)carbamate], the IC50 on menin protein is more than 2000 nM; in the assay on MV4-11, 525 nM; in the assay with MOLM13 it was 1400 nM.
On to `COC(=O)N[C@H]1CCC[C@@H]1[C@](C#N)(c1cccc(F)c1)C1CCN(CC2CN(c3ccc(S(=O)(=O)C4CN(C(=O)/C=C/CN5CCCC5)C4)cc3)C2)CC1` [Cpd. No. 74, methyl ((1S,2R)-2-((S)-cyano(3-fluorophenyl)(1-((1-(4-((1-((E)-4-(pyrrolidin-1-yl)but-2-enoyl)azetidin-3-yl)sulfonyl)phenyl)azetidin-3-yl)methyl)piperidin-4-yl)methyl)cyclopentyl)carbamate], for which the IC50 at menin protein was 3 nM; with MV4-11, 2 nM; in the assay with MOLM13, 14 nM.
For `C=CC(=O)N1CCC(S(=O)(=O)c2ccc(N3CC(CN4CCC([C@@](C#N)(c5cccc(F)c5)[C@H]5CCC[C@@H]5NC(=O)OC)CC4)C3)cc2)C1` (stereo partly drawn) [Cpd. No. 77, methyl ((1S,2R)-2-((1S)-(1-((1-(4-((1-acryloylpyrrolidin-3-yl)sulfonyl)phenyl)azetidin-3-yl)methyl)piperidin-4-yl)(cyano)(3-fluorophenyl)methyl)cyclopentyl)carbamate], in that order: 11 nM, 91 nM and 1220 nM.
Consider `COC(=O)N[C@H]1CCC[C@@H]1[C@](C#N)(c1cccc(F)c1)C1C[C@@H](C)N(CC2CN(c3ccc(S(=O)(=O)C4CN(C(=O)/C=C/CN(C)C)C4)cc3)C2)[C@@H](C)C1` (stereo partly drawn) [Cpd. No. 75, methyl ((1S,2R)-2-((1S)-cyano((2R,6S)-1-((1-(4-((1-((E)-4-(dimethylamino)but-2-enoyl)azetidin-3-yl)sulfonyl)phenyl)azetidin-3-yl)methyl)-2,6-dimethylpiperidin-4-yl)(3-fluorophenyl)methyl)cyclopentyl)carbamate], for which the IC50 at menin protein turned out to be 6 nM.
As to `C=CC(=O)Nc1cccc(S(=O)(=O)c2ccc(N3CC(CN4CCC([C@](C#N)(c5cccc(F)c5)[C@H]5CCC[C@@H]5NC(=O)OC)CC4)C3)cc2)c1` [Cpd. No. 70, methyl ((1S,2R)-2-((R)-(1-((1-(4-((3-acrylamidophenyl)sulfonyl)phenyl)azetidin-3-yl)methyl)piperidin-4-yl)(cyano)(3-fluorophenyl)methyl)cyclopentyl)carbamate], the IC50 on menin protein was more than 10000 nM.
Same read-out and setting: the value for `COC(=O)N[C@H]1CCC[C@@H]1[C@](C#N)(c1cccc(F)c1)C1CCN(CC2CN(c3ccc(S(=O)(=O)c4cccc(NC(=O)/C=C/CN(C)C)c4)cc3)C2)CC1` [Cpd. No. 63, methyl ((1S,2R)-2-((S)-cyano(1-((1-(4-((3-((E)-4-(dimethylamino)but-2-enamido)phenyl)sulfonyl)phenyl)azetidin-3-yl)methyl)piperidin-4-yl)(3-fluorophenyl)methyl)cyclopentyl)carbamate] was 2 nM; that for `COC(=O)N[C@H]1CCC[C@@H]1[C@](C#N)(c1cccc(F)c1)C1CCN(CC2CN(c3ccc(S(=O)(=O)C4CN(C(=O)/C=C/CN5CCCCC5)C4)cc3)C2)CC1` [Cpd. No. 71, methyl ((1S,2R)-2-((S)-cyano(3-fluorophenyl)(1-((1-(4-((1-((E)-4-(piperidin-1-yl)but-2-enoyl)azetidin-3-yl)sulfonyl)phenyl)azetidin-3-yl)methyl)piperidin-4-yl)methyl)cyclopentyl)carbamate] was 4 nM.
The same measure, in the same setting: the value for `C=CC(=O)N1CC(S(=O)(=O)c2ccc(OCCOc3ccc([C@](C#N)(c4cccc(F)c4)[C@H]4CCC[C@@H]4NC(=O)OC)cc3)cc2)C1` [Cpd. No. 65, methyl ((1S,2R)-2-((S)-(4-(2-(4-((1-acryloylazetidin-3-yl)sulfonyl)phenoxy)ethoxy)phenyl)(cyano)(3-fluorophenyl)methyl)cyclopentyl)carbamate] was more than 10000 nM.
For the compound `N#Cc1ccc(N2CC(CN3CCC([C@@](C#N)(c4cccc(F)c4)[C@H]4CCC[C@@H]4NC(=O)CCl)CC3)C2)cc1` [compound 81, 2-chloro-N-((1S,2R)-2-((S)-cyano(1-((1-(4-cyanophenyl)azetidin-3-yl)methyl)piperidin-4-yl)(3-fluorophenyl)methyl)cyclopentyl)acetamide], at menin protein, the IC50 is 9 nM.
Still for that read-out and setting: the result for `CCc1nccn1C[C@@](c1cccc(F)c1)(C1CCN(CC2(F)CN(c3ccc(S(=O)(=O)C4CN(C(=O)/C=C/CN(C)C)C4)cc3)C2)CC1)[C@H]1CCC[C@@H]1NC(=O)OC` [Cpd. No. 66, methyl ((1S,2R)-2-((S)-1-(1-((1-(4-((1-((E)-4-(dimethylamino)but-2-enoyl)azetidin-3-yl)sulfonyl)phenyl)-3-fluoroazetidin-3-yl)methyl)piperidin-4-yl)-2-(2-ethyl-1H-imidazol-1-yl)-1-(3-fluorophenyl)ethyl)cyclopentyl)carbamate] reads 1 nM; that for `C=CC(=O)N1CC(S(=O)(=O)c2ccc(N3CC(CN4CCC([C@@](Cn5ccnc5CC)(c5cccc(F)c5)[C@H]5CCC[C@@H]5NC(=O)OC)CC4)C3)cc2)C1` [Cpd. No. 8, methyl ((1S,2R)-2-((S)-1-(1-((1-(4-((1-acryloylazetidin-3-yl)sulfonyl)phenyl)azetidin-3-yl)methyl)piperidin-4-yl)-2-(2-ethyl-1H-imidazol-1-yl)-1-(3-fluorophenyl)ethyl)cyclopentyl)carbamate], 2 nM.
On the same count and under the same terms, the result for `C=CC(=O)N1CC(S(=O)(=O)c2ccc(N3CC(F)(CN4CCC([C@@](C#N)(c5cccc(F)c5)[C@H]5CCC[C@@H]5NC(=O)OC)CC4)C3)cc2)C1` [Cpd. No. 13, methyl ((1S,2R)-2-((S)-(1-((1-(4-((1-acryloylazetidin-3-yl)sulfonyl)phenyl)-3-fluoroazetidin-3-yl)methyl)piperidin-4-yl)(cyano)(3-fluorophenyl)methyl)cyclopentyl)carbamate] reads 24 nM; that for `C/C=C/C(=O)N1CC(S(=O)(=O)c2ccc(N3CC(CN4CCC([C@@](C#N)(c5cccc(F)c5)[C@H]5CCC[C@@H]5NC(=O)OC)CC4)C3)cc2)C1` [Cpd. No. 56, methyl ((1S,2R)-2-((S)-(1-((1-(4-((1-((E)-but-2-enoyl)azetidin-3-yl)sulfonyl)phenyl)azetidin-3-yl)methyl)piperidin-4-yl)(cyano)(3-fluorophenyl)methyl)cyclopentyl)carbamate], 5 nM.
The same measure, in the same setting: the result for `C=CC(=O)Nc1cccc(S(=O)(=O)c2ccc(N3CC(F)(CN4CCC([C@@](C#N)(c5cccc(F)c5)[C@H]5CCC[C@@H]5NC(=O)OC)CC4)C3)cc2)c1` [Cpd. No. 12, methyl ((1S,2R)-2-((S)-(1-((1-(4-((3-acrylamidophenyl)sulfonyl)phenyl)-3-fluoroazetidin-3-yl)methyl)piperidin-4-yl)(cyano)(3-fluorophenyl)methyl)cyclopentyl)carbamate] reads 42 nM.
